For three compounds, IC50 and inhibition results are on record in ChEMBL document CHEMBL1140643, “Synthesis of 4-phenoxybenzamide adenine dinucleotide as NAD analogue with inhibitory activity against enoyl-ACP reductase (InhA) of Mycobacterium tuberculosis” (Bioorg Med Chem Lett, 2007).

pIC50: −log10 of the molar value.

The target in assay [1] is T1, Enoyl-[acyl-carrier-protein] reductase [NADH] (Mycobacterium tuberculosis, UniProt P9WGR1).
T1 sequence (P9WGR1 whole entry): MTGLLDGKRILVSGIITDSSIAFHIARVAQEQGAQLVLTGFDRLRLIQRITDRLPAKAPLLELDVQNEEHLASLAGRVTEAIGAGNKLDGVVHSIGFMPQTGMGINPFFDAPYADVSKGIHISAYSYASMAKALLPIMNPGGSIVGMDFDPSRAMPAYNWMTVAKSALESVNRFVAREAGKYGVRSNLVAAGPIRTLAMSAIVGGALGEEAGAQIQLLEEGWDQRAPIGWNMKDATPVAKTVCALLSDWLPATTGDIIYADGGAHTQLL
Put plainly: Inhibition of Mycobacterium tuberculosis InhA.

In assay [2] the target is T2, Enoyl-[acyl-carrier-protein] reductase [NADH] (Mycobacterium tuberculosis) (UniProt P9WGR1).
T2 sequence (whole entry): T1 sequence (P9WGR1 whole entry)
The experiment in a line: Inhibition of Mycobacterium tuberculosis InhA at 700 uM.

Assay [3] has as its target T2, Enoyl-[acyl-carrier-protein] reductase [NADH] (Mycobacterium tuberculosis). The experiment in a line: Inhibition of Mycobacterium tuberculosis InhA at 100 uM.

Consider `NC(=O)c1cc([C@@H]2O[C@H](COP(=O)(O)OP(=O)(O)OC[C@H]3O[C@@H](n4cnc5c(N)ncnc54)[C@H](O)[C@@H]3O)[C@@H](O)[C@H]2O)ccc1Oc1ccccc1`, for which the pIC50 – broadly, the negative decadic logarithm of the IC50, by convention in mol/L – in assay [1] is 4.57. Regarding `NC(=O)c1cc([C@@H]2O[C@H](CO)[C@@H](O)[C@H]2O)ccc1Oc1ccccc1`, the inhibition (commonly the share of the control response that was lost under treatment) in assay [2] stood at 25%. Regarding `NC(=O)c1cc([C@@H]2O[C@H](COP(=O)(O)O)[C@@H](O)[C@H]2O)ccc1Oc1ccccc1`, the inhibition in assay [3] is 12%.
